Values quoted from earlier work in patent publication US20060110477A1, “Composition and method for supporting and promoting healthy sexual function and prevention and treatment of sexual dysfunction” (priority 2004, published 2006).

Target: rat cGMP-specific PDE5 (Rattus norvegicus, UniProt O54735)

COc1cc(O)c(CC=C(C)C)c2oc(-c3ccc(O)cc3)c(O)c(=O)c12 [sophoflavescenol]
relative potency against cGMP PDE5 (among the flavonols in the ethyl acetate fraction): most potent
IC50 ratio PDE4/PDE5 (selectivity between PDE isoforms): 196.2
